# Test results: patent US20180087079A1, “METHODS OF USING CELL-CYCLE INHIBITORS TO MODULATE ONE OR MORE PROPERTIES OF A CELL CULTURE” (AMGEN INC., priority 2013, published 2018)
# How the values were obtained:
# [1] = tested on: transfected CHO cells expressing recombinant human monoclonal antibody (cell line 1); assay: 24-deep well culture, cell line 1: VCD, viability, titer, qP; type: cell-based, Chinese hamster; conditions: for Titer / VCD / Viability / qP: Cell Line 1; for effect on viability / growth arrest: summary of Table 2
# Procedure: Transfected CHO cells expressing a recombinant human monoclonal antibody (mAb) are cultured in 24-deep well plates with seeding density at 1×10^7/mL for five days. At certain time periods, samples of the cultures are taken and evaluated for viable cell density (VCD; expressed in 10^6 cells/mL); percent viability (as determined by trypan blue exclusion); titer of recombinant protein (expressed in grams of protein per liter of culture, or g/L, as determined by Protein A affinity HPLC); qP, or specific productivity (expressed in picograms of recombinant protein per cell per day, or pg/c/d), the presence or absence of high molecular weight substances (usually an indicator of protein aggregation; expressed as % of the total protein); and the relative percentage of Mannose 5, a major intermediate glyco-form that attaches to N297 of the mAb. N-linked glycosylation has an impact on the tertiary structure of the antibody and may affect Fc mediated antibody effector functions. The majority of the human Fc glycans are complex biantennary structures with galactose as the prevalent terminal sugar. Immature glyco-forms, such as high-mannose glycol-forms (Man5-9), are of concern due to potential higher plasma clearance rate (as compared to the clearance rate of complex glycan linked mAbs).
# Compounds are further evaluated essentially as described in Example 2 herein. Briefly, transfected CHO cells expressing recombinant human monoclonal antibody (mAb; two different cell lines expressing two different mAb, referred to as cell line 1 and cell line 2) are cultured in 24-deep well plates in the presence or absence of the compounds. At specified time points, samples of the cultures are taken and evaluated for viable cell density (VCD; expressed in 10^6 cells/mL); percent viability (as determined by any method known in the art); titer of recombinant protein (expressed in grams of protein per liter of culture, or g/L, as determined by Protein A affinity HPLC); qP, or specific productivity (expressed in picograms of recombinant protein per cell per day, or pg/c/d). Additional parameters measure include the presence or absence of high molecular weight substances (usually an indicator of protein aggregation; expressed as % of the total protein); and the relative percentage of Mannose 5. For comparison purposes, Compounds A and B, which had been previously tested, were tested again.
# CDK4/Cyclin D1 = target: T1, CDK4/Cyclin D1 (Homo sapiens, UniProt P11802); assay: CDK4 filtration kinase assay; type: biochemical; conditions: CDK4/Cyclin D1, Rb fragment substrate, [33P]-ATP
# T1 construct: purchased Cell Signaling Technology
# T1 sequence (P11802 whole entry, species assumed, the tested form may be a part): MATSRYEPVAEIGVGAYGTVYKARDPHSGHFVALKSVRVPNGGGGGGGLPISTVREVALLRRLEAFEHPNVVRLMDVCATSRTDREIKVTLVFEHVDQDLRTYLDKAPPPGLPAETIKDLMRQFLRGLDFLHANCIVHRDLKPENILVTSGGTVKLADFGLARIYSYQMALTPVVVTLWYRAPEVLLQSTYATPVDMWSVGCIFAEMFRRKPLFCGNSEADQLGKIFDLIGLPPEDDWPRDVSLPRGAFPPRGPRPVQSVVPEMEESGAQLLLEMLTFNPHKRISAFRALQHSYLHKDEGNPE
# T1 sequence (P24385 whole entry partner, species assumed, the tested form may be a part): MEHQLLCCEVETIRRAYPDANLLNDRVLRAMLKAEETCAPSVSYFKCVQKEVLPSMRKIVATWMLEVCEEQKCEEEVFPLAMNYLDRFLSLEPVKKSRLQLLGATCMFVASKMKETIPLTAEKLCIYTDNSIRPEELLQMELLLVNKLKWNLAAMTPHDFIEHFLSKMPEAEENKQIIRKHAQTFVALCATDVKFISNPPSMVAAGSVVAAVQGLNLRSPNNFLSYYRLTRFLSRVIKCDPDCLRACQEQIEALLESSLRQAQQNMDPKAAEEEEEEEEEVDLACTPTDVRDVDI
# Procedure: The CDK4 inhibitory activity of the cell cycle inhibitors was determined with a filtration kinase assay. The compounds, kinase and substrate diluted in the kinase buffer (20 mM Tris, pH7.4, 50 mM NaCl, 1 mM DTT, 0.1% BSA) were sequentially added to a 96-well Multiscreen HTS filtration plate (Millipore). The final 100 μL reaction mixture in each well contained 0.3 μg of CDK4/Cyclin D1 (Cell Signaling Technology), 1 μg of Rb fragment (aa773-928, Millipore) for the CDK4 assay and 1 μCi of [^33P]-ATP. The mixture was incubated at room temperature for 1 hour. The proteins in the reaction were then precipitated and washed with cold TCA solution using an aspiration/filtration vacuum system. The plates were dried at room temperature, and the retained radioactivity was measured by scintillation counting. IC50 values of the compounds in the above assays were determined by non-linear regression analysis using Prism (GraphPad Software).
# Colo205 = assay: [14C]-thymidine incorporation cell proliferation inhibition assay; type: cell-based; conditions: Homo sapiens, COLO 205, 72 hour incubation
# Procedure: The cell proliferation inhibition potency of the cell cycle inhibitors was determined by using a [^14C]-thymidine incorporation assay. Exponentially growing cells (Colo205) were seeded in a 96-well Cytostar T plate (GE Healthcare Biosciences) at a density of 5×10^3 cells/well and incubated overnight. Serially diluted compounds and 0.1 μCi of [^14C]-thymidine (GE Healthcare Biosciences) were added to each well on the following day. After 72 hour incubation, isotope incorporation was determined with a β plate counter (Wallac). IC50 values of the compounds in the above assays were determined by non-linear regression analysis using Prism (GraphPad Software).
structure (smiles),measurement,setting,value
"CN(C)C1CCN(c2ccc(Nc3ncc4c5ccncc5n(C5CCCC5)c4n3)nn2)CC1 [Compound C, 9-cyclopentyl-N-(6-(4-(dimethylamino)piperidin-1-yl)pyridazin-3-yl)-9H-pyrido[4′,3′:4,5]pyrrolo[2,3-d]pyrimidin-2-amine]",Titer,"[1]; 10 microM, D 1",0.48 g/L
same,VCD,"[1]; 10 microM, D 1",10.72 e6/mL
same,Viability,"[1]; 10 microM, D 1",94.37%
same,qP,"[1]; 10 microM, D 1",44.45 pg/c/d
same,Titer,"[1]; 10 microM, D 2",0.70 g/L
same,VCD,"[1]; 10 microM, D 2",8.77 e6/mL
same,Viability,"[1]; 10 microM, D 2",82.97%
same,qP,"[1]; 10 microM, D 2",79.79 pg/c/d
same,Titer,"[1]; 10 microM, D 3",0.94 g/L
same,VCD,"[1]; 10 microM, D 3",10.83 e6/mL
same,Viability,"[1]; 10 microM, D 3",84.46%
same,qP,"[1]; 10 microM, D 3",86.83 pg/c/d
same,Titer,"[1]; 10 microM, D 4",1.21 g/L
same,VCD,"[1]; 10 microM, D 4",12.18 e6/mL
same,Viability,"[1]; 10 microM, D 4",78.70%
same,qP,"[1]; 10 microM, D 4",99.64 pg/c/d
same,Titer,"[1]; 20 microM, D 1",0.48 g/L
same,VCD,"[1]; 20 microM, D 1",11.00 e6/mL
same,Viability,"[1]; 20 microM, D 1",94.55%
same,qP,"[1]; 20 microM, D 1",43.31 pg/c/d
same,Titer,"[1]; 20 microM, D 2",0.67 g/L
same,VCD,"[1]; 20 microM, D 2",8.28 e6/mL
same,Viability,"[1]; 20 microM, D 2",80.00%
same,qP,"[1]; 20 microM, D 2",80.51 pg/c/d
same,Titer,"[1]; 20 microM, D 3",0.85 g/L
same,VCD,"[1]; 20 microM, D 3",9.22 e6/mL
same,Viability,"[1]; 20 microM, D 3",78.87%
same,qP,"[1]; 20 microM, D 3",91.80 pg/c/d
same,Titer,"[1]; 20 microM, D 4",1.10 g/L
same,VCD,"[1]; 20 microM, D 4",10.18 e6/mL
same,Viability,"[1]; 20 microM, D 4",74.13%
same,qP,"[1]; 20 microM, D 4",108.01 pg/c/d
same,effect on viability,[1],greater (but still modest) decreases in viability
same,growth arrest,[1],more sustained growth arrest
same,IC50,CDK4/Cyclin D1,3.17 nM
same,IC50,Colo205,17.1 nM
"CC1CCC(n2c3cnccc3c3cnc(Nc4ccc(N5CCNC(C)C5)nn4)nc32)CC1 (stereo not shown) [Compound D, 9-(4-methylcyclohexyl)-N-(6-(3-methylpiperazin-1-yl)pyridazin-3-yl)-9H-pyrido[4′,3′:4,5]pyrrolo[2,3-d]pyrimidin-2-amine]",Titer,"[1]; 2.5 microM, D 1",0.49 g/L
same,VCD,"[1]; 2.5 microM, D 1",11.85 e6/mL
same,Viability,"[1]; 2.5 microM, D 1",95.50%
same,qP,"[1]; 2.5 microM, D 1",41.37 pg/c/d
same,Titer,"[1]; 2.5 microM, D 2",0.73 g/L
same,VCD,"[1]; 2.5 microM, D 2",10.72 e6/mL
same,Viability,"[1]; 2.5 microM, D 2",87.30%
same,qP,"[1]; 2.5 microM, D 2",67.79 pg/c/d
same,Titer,"[1]; 2.5 microM, D 3",0.98 g/L
same,VCD,"[1]; 2.5 microM, D 3",11.11 e6/mL
same,Viability,"[1]; 2.5 microM, D 3",84.83%
same,qP,"[1]; 2.5 microM, D 3",87.94 pg/c/d
same,Titer,"[1]; 2.5 microM, D 4",1.27 g/L
same,VCD,"[1]; 2.5 microM, D 4",14.71 e6/mL
same,Viability,"[1]; 2.5 microM, D 4",82.00%
same,qP,"[1]; 2.5 microM, D 4",86.32 pg/c/d
same,Titer,"[1]; 5 microM, D 1",0.49 g/L
same,VCD,"[1]; 5 microM, D 1",11.76 e6/mL
same,Viability,"[1]; 5 microM, D 1",95.92%
same,qP,"[1]; 5 microM, D 1",41.95 pg/c/d
same,Titer,"[1]; 5 microM, D 2",0.70 g/L
same,VCD,"[1]; 5 microM, D 2",10.17 e6/mL
same,Viability,"[1]; 5 microM, D 2",86.10%
same,qP,"[1]; 5 microM, D 2",69.17 pg/c/d
same,Titer,"[1]; 5 microM, D 3",0.87 g/L
same,VCD,"[1]; 5 microM, D 3",9.71 e6/mL
same,Viability,"[1]; 5 microM, D 3",79.43%
same,qP,"[1]; 5 microM, D 3",89.92 pg/c/d
same,Titer,"[1]; 5 microM, D 4",1.11 g/L
same,VCD,"[1]; 5 microM, D 4",11.94 e6/mL
same,Viability,"[1]; 5 microM, D 4",76.30%
same,qP,"[1]; 5 microM, D 4",92.69 pg/c/d
same,Titer,"[1]; 10 microM, D 1",0.49 g/L
same,VCD,"[1]; 10 microM, D 1",11.35 e6/mL
same,Viability,"[1]; 10 microM, D 1",94.69%
same,qP,"[1]; 10 microM, D 1",43.16 pg/c/d
same,Titer,"[1]; 10 microM, D 2",0.67 g/L
same,VCD,"[1]; 10 microM, D 2",9.65 e6/mL
same,Viability,"[1]; 10 microM, D 2",82.20%
same,qP,"[1]; 10 microM, D 2",69.81 pg/c/d
same,Titer,"[1]; 10 microM, D 3",0.86 g/L
same,VCD,"[1]; 10 microM, D 3",9.31 e6/mL
same,Viability,"[1]; 10 microM, D 3",76.69%
same,qP,"[1]; 10 microM, D 3",92.01 pg/c/d
same,Titer,"[1]; 10 microM, D 4",0.99 g/L
same,VCD,"[1]; 10 microM, D 4",10.04 e6/mL
same,Viability,"[1]; 10 microM, D 4",70.89%
same,qP,"[1]; 10 microM, D 4",98.63 pg/c/d
same,effect on viability,[1],minimal effects on viability
same,growth arrest,[1],reasonably sustained growth arrest
same,IC50,CDK4/Cyclin D1,1.86 nM
same,IC50,Colo205,29.9 nM
